Source: PubChem BioAssay (NCI)
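48-hour exposure; five concentrations; linearly interpolated endpoints. At the GI50, growth is halved. TGI marks complete inhibition of growth.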

How the values were obtained:
Assay in all cases: NCI tumour cell line growth inhibition, 48 h
P388 leukemia = test system: P388 leukemia
SN12K1 renal = test system: SN12K1 renal
SNB-78 CNS = test system: SNB-78 CNS
M19-MEL melanoma = test system: M19-MEL melanoma
DLD-1 colon = test system: DLD-1 colon
DMS 273 small cell lung = test system: DMS 273 small cell lung
P388/ADR leukemia = test system: P388/ADR leukemia
LXFL 529 NSCLC = test system: LXFL 529 NSCLC
RXF-631 renal = test system: RXF-631 renal

SMILES | TGI (P388 leukemia) [µM] | TGI (SN12K1 renal) [µM] | TGI (SNB-78 CNS) [µM] | TGI (M19-MEL melanoma) [µM] | TGI (DLD-1 colon) [µM] | TGI (DMS 273 small cell lung) [µM] | TGI (P388/ADR leukemia) [µM] | TGI (LXFL 529 NSCLC) [µM] | TGI (RXF-631 renal) [µM] | GI50 (DLD-1 colon) [µM] | GI50 (LXFL 529 NSCLC) [µM]
COc1cc2c(ccc3c4cc(OC)c(OC)cc4c[n+](C)c23)cc1O | 5.21 | 14 | > 75 | > 75 | > 75 | > 75 | > 75 |  |  |  | 
O=C(OCN1C(=O)C2C3C=CC(C2C1=O)C1C2C(=O)N(COC(=O)C4CCCN4)C(=O)C2C31)C1CCCN1 (centres undefined) |  |  | > 100 | > 100 | > 69.7 | > 56.4 |  | > 100 | > 100 |  | 
[N-]=[N+]=CC(=O)c1ccccc1C#CCCc1ccccc1 |  |  |  |  | > 100 | 73.7 |  |  |  |  | 
CCCCCCCCC/C=C/C=C/C(=O)NCC(=O)NC1C(O)C(O)C(Nc2ncnc3nc[nH]c23)OC1C(O)CO (centres undefined) |  |  |  | 0.0253 |  |  |  |  |  | 0.896 | 0.0467
CNC(=O)OCc1c(CO)nc(SC)n1C | > 100 | > 100 |  | > 100 | > 100 | > 100 | > 100 |  |  |  | 
